{"source": "ChEMBL document CHEMBL5321260", "about": "“Pseudo-Enantiomeric Paraphaeolactones and Their Biosynthetic Derivatives from Paraphaeosphaeria sp. KT4192: A Proposition of a Favorskii Rearrangement for Their Biosynthesis” (J Nat Prod, 2023)", "note": "Active and inactive are the calls of the source. The rule behind the calls is not given here."}
{"system": "Bipolaris oryzae", "assay": "Antifungal activity against Bipolaris oryzae incubated for 5 days", "type": "functional, organism-based", "settings": "time 5.0 day"}
{"compound": "CC(=O)[C@@H](O)c1c(C)ccc2c1O[C@]1(O2)[C@@]2(O)C=C[C@@H](C)[C@@H]3[C@H]2OC(=O)[C@@]31O", "Activity": "inactive"}
{"compound": "C[C@@H]1C=C[C@]2(O)C[C@@]3(O)C(=O)O[C@@H]2[C@@H]13", "Activity": "inactive"}
{"compound": "CC(=O)[C@@H](O)c1c(C)ccc2c1O[C@@]1(O2)[C@@]2(O)C=C[C@@H](C)[C@@H]3[C@H]2OC(=O)[C@@]31O", "Activity": "inactive"}
{"compound": "CC(=O)[C@H](O)[C@H]1[C@H](C)C=CC(=O)[C@@H]1O", "Activity": "inactive"}
{"compound": "Cc1ccc(O)cc1C(=O)[C@H](C)O", "Activity": "inactive"}
{"compound": "C[C@@H]1C=C[C@@]2(O)C[C@]3(O)C(=O)O[C@H]2[C@H]13", "Activity": "inactive"}
{"compound": "CC(=O)C(O)c1cc(O)ccc1C", "note": "(stereo not drawn)", "Activity": "inactive"}
{"compound": "COC(=O)[C@]12[C@@H](C(C)=O)O[C@H](CC(=O)[C@@H]1O)[C@H]2C", "Activity": "inactive"}
{"compound": "C=C1OC(=O)[C@]23[C@@H]1O[C@H](CC(=O)[C@@H]2O)[C@H]3C", "Activity": "inactive"}
{"system": "COLO 201", "assay": "Cytotoxicity against human COLO201 cells assessed as reduction in cell proliferation measured after 24 hrs by WST-1 assay", "type": "functional, cell-based", "settings": "COLO 201, 24 h", "units": {"IC50": "µM"}}
{"compound": "CC(=O)[C@@H](O)c1c(C)ccc2c1O[C@]1(O2)[C@@]2(O)C=C[C@@H](C)[C@@H]3[C@H]2OC(=O)[C@@]31O", "IC50": 260}
{"compound": "C[C@@H]1C=C[C@]2(O)C[C@@]3(O)C(=O)O[C@@H]2[C@@H]13", "IC50": "> 500"}
{"compound": "CC(=O)[C@@H](O)c1c(C)ccc2c1O[C@@]1(O2)[C@@]2(O)C=C[C@@H](C)[C@@H]3[C@H]2OC(=O)[C@@]31O", "IC50": 200}
{"compound": "CC(=O)[C@H](O)[C@H]1[C@H](C)C=CC(=O)[C@@H]1O", "IC50": "> 500"}
{"compound": "Cc1ccc(O)cc1C(=O)[C@H](C)O", "IC50": 290}
{"compound": "C[C@@H]1C=C[C@@]2(O)C[C@]3(O)C(=O)O[C@H]2[C@H]13", "IC50": 300}
{"compound": "CC(=O)C(O)c1cc(O)ccc1C", "note": "(stereo not drawn)", "IC50": 340}
{"compound": "COC(=O)[C@]12[C@@H](C(C)=O)O[C@H](CC(=O)[C@@H]1O)[C@H]2C", "IC50": 200}
{"compound": "C=C1OC(=O)[C@]23[C@@H]1O[C@H](CC(=O)[C@@H]2O)[C@H]3C", "IC50": 390}
